Measurements published in patent US10676438B2, “KCNQ2-5 channel activator” (Ono Pharmaceutical Co., Ltd., priority 2014, dated 2020).
Values after ≈ are worked out from the molar mass of the structure shown.

Key:
[1] = biological target: Human KCNQ2/3 channel (Homo sapiens (Human), UniProt O43525+O43526); assay: Opening action with respect to KCNQ2/3 channel by depolarization stimulation (thallium influx, FLIPR); type: cell-based; details: concentration giving 50% of maximum reaction of retigabine (10 μM); human KCNQ2/3 expression CHO-DHFR- cells; 5 mM potassium and 0.5 mM thallium; read-out: KCNQ2/3 ECrtg50
Procedure: Human KCNQ2/3 expression cells (CHO-DHFR-cells) were seeded in each well of 384 well plate (collagen-coated, black, clear bottom) at 0.5×10^4 cells/50 μL per well, and cultured in a MEM ALPHA medium (containing 10 vol % inactivated (56° C., 30 min) Fetal Bovine Serum and 100 IU/mL Penicillin—100 μg/mL Streptomycin—2 mM L-Glutamine) at 37° C. in 5% CO2 for 18 to 24 hours. The medium in the plate was removed. Then, incubation (room temperature, 60 minutes, light-shielded) was carried out in a loading buffer (prepared by the method described in the manual of FluxOR Thallium Detection Kit (Invitrogen, F10016, F10017)). KCNQ2/3 channel opening action (thallium influx into cells) by the depolarization stimulation (5 mM potassium and 0.5 mM thallium) was measured by FLIPR TETRA (Molecular Devices). The compound of the present invention had been treated five minutes before the depolarization stimulation, and the reaction induced by the depolarization stimulation was measured over time for 180 seconds. The channel opening action of the compound of the present invention was evaluated based on the change amount of the fluorescence intensity from the time before the depolarization stimulation to the time after the passage of 180 seconds. Thus, the concentration (ECrtg50) satisfying 50% of the fluorescence intensity change of maximum reaction (at the time of 10 μM-treatment) of retigabine under this experiment condition was calculated.

[2] = Solubility test (DMSO precipitation method, Pharmacopoeia of Japan elution test second solution); type: physicochemical; details: Pharmacopoeia of Japan elution test second solution pH=6.8, room temperature, five hours, quantitation range 5 to 100 μM; for solubility at 5 h: aqueous buffer, kinetic from dmso stock
Procedure: A calibration curve solution was prepared by diluting a test substance (10 mM DMSO solution) with acetonitrile and adding acetonitrile including an internal standard substance (candesartan) so as to be 0.1, 0.4, and 2 μM.
Sample solution was prepared as follows: 5 μL of the compound of the present invention (10 mM DMSO solution) was added to 495 μL of the Pharmacopoeia of Japan elution test second solution (pH=6.8), and the resulting mixture was stirred at room temperature for five hours. Then, the solution was placed into a solubility filter plate and subjected to suction filtration. The filtrate (20 μL) was diluted with acetonitrile, followed by adding acetonitrile including an internal standard substance ([…]).
The calibration curve and sample solutions in the amount of 5 μL were infused into LC-MS/MS (Discovery Max manufactured by Thermo Scientific) and subjected to quantitation (quantitation range: 5 to 100 μM).

Compound	EC50 [1] [nM]	solubility at 5 h [2] [µM]	Solubility [2] [µM]
CC(C)(C)CC(=O)Nc1c(Cl)cc(C(C)(O)C(F)(F)F)cc1Cl (stereo not shown) [Example 50 (4), N-[2,6-dichloro-4-(1,1,1-trifluoro-2-hydroxy-2-propanyl)phenyl]-3,3-dimethylbutane amide]	50	–	–
NC(c1cc(Cl)c(NC(=O)NCc2cnc(C(F)(F)F)s2)c(Cl)c1)C(F)(F)F (stereo not shown) [Example 79 (4), 1-[4-(1-amino-2,2,2-trifluoroethyl)-2,6-dichlorophenyl]-3-{[2-(trifluoromethyl)-1,3-thiazole-5-yl]methyl}urea]	300	–	–
CC(O)(c1cc(Cl)c(NC(=O)NCc2ccc(Cl)s2)c(Cl)c1)C(F)(F)F (stereo not shown) [Example 5 (8), 1-[(5-chloro-2-thienyl)methyl]-3-[2,6-dichloro-4-(1,1,1-trifluoro-2-hydroxy-2-propanyl)phenyl]urea]	1	–	–
CC(O)(c1cc(Cl)c(NC(=O)NCc2ccc(C(F)(F)F)o2)c(Cl)c1)C(F)(F)F (stereo not shown) [Example 5 (17), 1-[2,6-dichloro-4-(1,1,1-trifluoro-2-hydroxy-2-propanyl)phenyl]-3-{[5-(trifluoromethyl)-2-furyl]methyl}urea]	3	–	–
Cc1cc(C(O)C(F)(F)F)cc(Cl)c1NC(=O)NCc1ccc(C(F)(F)F)cn1 (stereo not shown) [Example 62, 1-[2-chloro-6-methyl-4-(2,2,2-trifluoro-1-hydroxyethyl)phenyl]-3-{[5-(trifluoromethyl)-2-pyridinyl]methyl}urea]	60	71 (≈ 31.4 µg/mL)	–
CC(O)(CC(F)(F)F)c1cc(Cl)c(NC(=O)NCc2ccc(C(F)(F)F)cn2)c(Cl)c1 (stereo not shown) [Example 67, 1-[2,6-dichloro-4-(4,4,4-trifluoro-2-hydroxy-2-butanyl)phenyl]-3-{[5-(trifluoromethyl)-2-pyridinyl]methyl}urea]	3500	–	–
CC(O)(c1cc(Cl)c(NC(=O)NCc2cc(-c3ccccc3)on2)c(Cl)c1)C(F)(F)F (stereo not shown) [Example 5 (16), 1-[2,6-dichloro-4-(1,1,1-trifluoro-2-hydroxy-2-propanyl)phenyl]-3-[(5-phenyl-1,2-oxazole-3-yl)methyl]urea]	10	–	–
CC1(C)CC(CNC(=O)Nc2c(Cl)cc(C(C)(O)C(F)(F)F)cc2Cl)CCO1 (stereo not shown) [Example 5 (5), 1-[2,6-dichloro-4-(1,1,1-trifluoro-2-hydroxy-2-propanyl)phenyl]-3-[(2,2-dimethyltetrahydro-2H-pyran-4-yl)methyl]urea]	300	93 (≈ 41.2 µg/mL)	–
CC(O)(c1cc(Cl)c(NC(=O)NCc2nccn2Cc2ccccc2)c(Cl)c1)C(F)(F)F (stereo not shown) [Example 5 (12), 1-[(1-benzyl-1H-imidazole-2-yl)methyl]-3-[2,6-dichloro-4-(1,1,1-trifluoro-2-hydroxy-2-propanyl)phenyl]urea]	2900	–	–
Cc1cccnc1CNC(=O)Nc1c(Cl)cc(C(C)(O)C(F)(F)F)cc1Cl (stereo not shown) [Example 5 (7), 1-[2,6-dichloro-4-(1,1,1-trifluoro-2-hydroxy-2-propanyl)phenyl]-3-[(3-methyl-2-pyridinyl)methyl]urea]	500	–	–
CC(O)(c1cc(Cl)c(NC(=O)CCc2ccccc2C(F)(F)F)c(Cl)c1)C(F)(F)F (stereo not shown) [Example 50 (7), N-[2,6-dichloro-4-(1,1,1-trifluoro-2-hydroxy-2-propanyl)phenyl]-3-[2-(trifluoromethyl)phenyl]propanamide]	40	–	–
CC(O)(c1cc(Cl)c(NC(=O)CCc2ccc(F)cc2)c(Cl)c1)C(F)(F)F (stereo not shown) [Example 50 (2), N-[2,6-dichloro-4-(1,1,1-trifluoro-2-hydroxy-2-propanyl)phenyl]-3-(4-fluorophenyl)propanamide]	30	41 (≈ 17.4 µg/mL)	–
CC(C)[C@@H](C)NC(=O)Nc1c(Cl)cc(C(C)(O)C(F)(F)F)cc1Cl (stereo partly drawn) [Example 5 (21), 1-[2,6-dichloro-4-(1,1,1-trifluoro-2-hydroxy-2-propanyl)phenyl]-3-[(2R)-3-methyl-2-butanyl]urea]	70	–	–
CC(O)(c1cc(Cl)c(NC(=O)NCc2cccc(N3CCCCC3)n2)c(Cl)c1)C(F)(F)F (stereo not shown) [Example 5 (3), 1-[2,6-dichloro-4-(1,1,1-trifluoro-2-hydroxy-2-propanyl)phenyl]-3-{[6-(1-piperidinyl)-2-pyridinyl]methyl}urea]	500	–	–

Other lines, results leading:

EC50 [1] [nM]	solubility at 5 h [2] [µM]	Solubility [2] [µM]	Compound
200	–	–	COC(C)(c1cc(Cl)c(NC(=O)NCc2ccc(C(F)(F)F)cn2)c(Cl)c1)C(F)(F)F (stereo not shown) [Example 71, 1-[2,6-dichloro-4-(1,1,1-trifluoro-2-methoxy-2-propanyl)phenyl]-3-{[5-(trifluoromethyl)-2-pyridinyl]methyl}urea]
60	–	–	CC(O)(c1cc(Cl)c(NC(=O)CCc2cccc(C(F)(F)F)c2)c(Cl)c1)C(F)(F)F (stereo not shown) [Example 50 (6), N-[2,6-dichloro-4-(1,1,1-trifluoro-2-hydroxy-2-propanyl)phenyl]-3-[3-(trifluoromethyl)phenyl]propanamide]
> 10000	–	–	CC(O)(c1ccc(NC(=O)NCc2ccc(C(F)(F)F)cn2)cc1)C(F)(F)F (stereo not shown) [Comparative Example 1, 1-[4-(1,1,1-trifluoro-2-hydroxy-2-propanyl)phenyl]-3-{[5-(trifluoromethyl)-2-pyridinyl]methyl}urea, reference compound]
70	–	–	CC(O)(c1cc(Cl)c(NC(=O)NCc2ccc(Br)cn2)c(Cl)c1)C(F)(F)F (stereo not shown) [Example 5 (11), 1-[(5-bromo-2-pyridinyl)methyl]-3-[2,6-dichloro-4-(1,1,1-trifluoro-2-hydroxy-2-propanyl)phenyl]urea]
10	69 (≈ 31.3 µg/mL)	–	CC(C)(C)c1cc(CNC(=O)Nc2c(Cl)cc(C(C)(O)C(F)(F)F)cc2Cl)no1 (stereo not shown) [Example 13, 1-[2,6-dichloro-4-(1,1,1-trifluoro-2-hydroxy-2-propanyl)phenyl]-3-{[5-(2-methyl-2-propanyl)-1,2-oxazole 3-yl]methyl}urea]
–	< 5	<5	O=C(Cc1ccc(F)cc1)Nc1c(Cl)cc(Cl)cc1Br [Comparative Example 2, N-(2-bromo-4,6-dichlorophenyl)-2-(4-fluorophenyl)acetamide, reference compound]
700	85 (≈ 37.3 µg/mL)	–	CC(O)(c1cc(Cl)c(NC(=O)NCc2nc(C3CC3)no2)c(Cl)c1)C(F)(F)F (stereo not shown) [Example 5 (22), 1-[(3-cyclopropyl-1,2,4-oxadiazole-5-yl)methyl]-3-[2,6-dichloro-4-(1,1,1-trifluoro-2-hydroxy-2-propanyl)phenyl]urea]
3	79 (≈ 31.7 µg/mL)	–	CC(NC(=O)Nc1c(Cl)cc(C(C)(O)C(F)(F)F)cc1Cl)C(C)(C)C (stereo not shown) [Example 5 (4), 1-[2,6-dichloro-4-(1,1,1-trifluoro-2-hydroxy-2-propanyl)phenyl]-3-(3,3-dimethyl-2-butanyl)urea]
0.3	–	–	CC(O)(c1cc(Cl)c(NC(=O)NCC2CCCCC2)c(Cl)c1)C(F)(F)F (stereo not shown) [Example 5 (10), 1-(cyclohexylmethyl)-3-[2,6-dichloro-4-(1,1,1-trifluoro-2-hydroxy-2-propanyl)phenyl]urea]
600	–	–	CC(O)(c1cc(F)c(NC(=O)NCc2ccc(C(F)(F)F)cn2)c(Cl)c1)C(F)(F)F (stereo not shown) [Example 49, 1-[2-chloro-6-fluoro-4-(1,1,1-trifluoro-2-hydroxy-2-propanyl)phenyl]-3-{[5-(trifluoromethyl)-2-pyridinyl]methyl}urea]
